Holding throughout (format): cell-based
One test has as its target T1, ADRA2C (Homo sapiens, UniProt P18825).
T1 sequence (P18825 1-462): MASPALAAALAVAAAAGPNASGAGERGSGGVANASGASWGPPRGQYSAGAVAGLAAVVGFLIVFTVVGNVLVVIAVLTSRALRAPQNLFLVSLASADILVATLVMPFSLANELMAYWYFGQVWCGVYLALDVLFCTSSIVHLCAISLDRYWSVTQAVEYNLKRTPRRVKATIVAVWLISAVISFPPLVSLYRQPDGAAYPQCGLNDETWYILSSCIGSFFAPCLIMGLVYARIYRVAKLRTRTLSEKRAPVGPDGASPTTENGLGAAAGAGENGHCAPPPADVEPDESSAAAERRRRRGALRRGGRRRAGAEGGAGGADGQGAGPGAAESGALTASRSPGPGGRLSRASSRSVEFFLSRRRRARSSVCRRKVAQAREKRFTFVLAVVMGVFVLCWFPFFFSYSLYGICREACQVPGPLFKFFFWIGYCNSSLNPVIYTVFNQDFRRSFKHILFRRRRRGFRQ
In words: PathHunter β-arrestin assay.

A further test has as its target CALCRL-RAMP2 (Homo sapiens, UniProt O60895+Q16602). As to the kind of experiment: PathHunter β-arrestin assay. To be noted: antagonist mode vs EC80 of control agonist, 10-point curve.
For the next test, the target named is T2, CHRM2 (Homo sapiens, UniProt P08172).
T2 sequence (P08172 1-466): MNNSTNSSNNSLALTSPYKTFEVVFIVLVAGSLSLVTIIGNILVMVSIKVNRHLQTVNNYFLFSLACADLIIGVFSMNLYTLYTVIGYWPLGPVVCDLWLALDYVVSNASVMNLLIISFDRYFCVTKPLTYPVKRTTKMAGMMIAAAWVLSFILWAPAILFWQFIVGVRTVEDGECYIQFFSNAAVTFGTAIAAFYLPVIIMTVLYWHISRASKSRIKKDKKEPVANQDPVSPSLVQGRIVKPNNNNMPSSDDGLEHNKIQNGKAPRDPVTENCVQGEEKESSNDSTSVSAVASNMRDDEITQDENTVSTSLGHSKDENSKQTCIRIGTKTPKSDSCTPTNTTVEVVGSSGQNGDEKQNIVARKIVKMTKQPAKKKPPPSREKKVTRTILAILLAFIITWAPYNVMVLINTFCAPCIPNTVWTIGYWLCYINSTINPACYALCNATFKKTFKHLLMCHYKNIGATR
In words: PathHunter β-arrestin assay. The settings on record: antagonist mode vs EC80 of control agonist, 10-point curve.

The target in a further test is T3, CNR1 (CB1) (Homo sapiens, UniProt P21554).
T3 construct: host or cells: CHO
T3 sequence (P21554 whole entry): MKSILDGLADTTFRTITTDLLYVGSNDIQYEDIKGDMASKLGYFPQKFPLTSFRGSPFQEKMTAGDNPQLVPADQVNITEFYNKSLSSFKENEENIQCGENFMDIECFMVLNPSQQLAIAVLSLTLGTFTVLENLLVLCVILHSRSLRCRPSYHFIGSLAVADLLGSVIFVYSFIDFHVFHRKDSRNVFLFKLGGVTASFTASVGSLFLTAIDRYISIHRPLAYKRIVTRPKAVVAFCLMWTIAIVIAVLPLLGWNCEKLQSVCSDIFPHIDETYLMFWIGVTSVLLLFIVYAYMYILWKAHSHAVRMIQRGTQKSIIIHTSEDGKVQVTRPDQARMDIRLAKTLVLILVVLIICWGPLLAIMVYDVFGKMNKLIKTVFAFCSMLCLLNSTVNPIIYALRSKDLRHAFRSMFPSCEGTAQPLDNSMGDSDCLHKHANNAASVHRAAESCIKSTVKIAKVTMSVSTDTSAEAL
In words: PathHunter β-arrestin assay. To be noted: agonist mode.

A further test addresses T4, FPR1 (Homo sapiens, UniProt P21462).
T4 sequence (P21462 1-350): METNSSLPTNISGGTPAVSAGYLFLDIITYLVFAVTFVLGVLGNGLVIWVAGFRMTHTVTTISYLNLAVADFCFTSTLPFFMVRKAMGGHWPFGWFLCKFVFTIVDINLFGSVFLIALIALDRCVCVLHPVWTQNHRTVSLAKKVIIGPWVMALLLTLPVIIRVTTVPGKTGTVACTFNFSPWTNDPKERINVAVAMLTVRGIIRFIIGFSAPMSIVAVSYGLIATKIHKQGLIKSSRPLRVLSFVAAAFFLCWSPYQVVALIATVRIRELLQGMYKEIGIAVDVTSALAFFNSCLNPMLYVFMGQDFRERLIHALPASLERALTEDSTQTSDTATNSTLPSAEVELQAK
As to the kind of experiment: PathHunter β-arrestin assay. The settings on record: antagonist mode vs EC80 of control agonist, 10-point curve.

In the next test the target is T5, GALR1 (Homo sapiens, UniProt P47211).
T5 construct: purchased Eurofins DiscoverX (PathHunter gpcrMAX)
T5 sequence (P47211 whole entry): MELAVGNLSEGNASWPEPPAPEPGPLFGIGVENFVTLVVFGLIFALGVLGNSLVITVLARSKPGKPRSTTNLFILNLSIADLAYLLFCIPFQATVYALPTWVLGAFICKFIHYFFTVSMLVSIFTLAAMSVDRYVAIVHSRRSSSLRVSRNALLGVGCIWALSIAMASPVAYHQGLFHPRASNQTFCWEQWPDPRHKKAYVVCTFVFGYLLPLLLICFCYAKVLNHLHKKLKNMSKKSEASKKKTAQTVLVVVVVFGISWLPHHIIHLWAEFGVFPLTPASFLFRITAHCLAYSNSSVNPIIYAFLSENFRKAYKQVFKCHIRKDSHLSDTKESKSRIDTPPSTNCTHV
In words: PathHunter β-arrestin assay. To be noted: antagonist mode, up to 30 μM.

The next test concerns the target T6, GIPR (Homo sapiens, UniProt P48546).
T6 construct: purchased Eurofins DiscoverX (PathHunter gpcrMAX)
As to the kind of experiment: PathHunter β-arrestin assay. The settings on record: antagonist mode, up to 30 μM.

In a further test the target is T7, GPR119 (Homo sapiens, UniProt Q8TDV5).
T7 construct: purchased Eurofins DiscoverX (PathHunter gpcrMAX)
T7 sequence (Q8TDV5 1-335): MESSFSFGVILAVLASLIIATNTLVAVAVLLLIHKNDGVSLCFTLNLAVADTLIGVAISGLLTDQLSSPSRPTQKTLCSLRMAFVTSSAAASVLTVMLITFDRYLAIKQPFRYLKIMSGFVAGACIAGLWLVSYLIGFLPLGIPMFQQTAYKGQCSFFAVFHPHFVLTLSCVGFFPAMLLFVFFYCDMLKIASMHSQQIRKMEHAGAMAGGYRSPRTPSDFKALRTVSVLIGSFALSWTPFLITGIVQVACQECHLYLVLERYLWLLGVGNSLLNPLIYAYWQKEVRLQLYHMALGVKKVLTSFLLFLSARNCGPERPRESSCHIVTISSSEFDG
As to the kind of experiment: PathHunter β-arrestin assay. The settings on record: antagonist mode, 30 μM.

For another test, the target named is HCRTR2 (Homo sapiens, UniProt O43614). As to the kind of experiment: PathHunter β-arrestin assay. The settings on record: antagonist mode vs EC80 of control agonist, 10-point curve.
Sequence of HCRTR2 (O43614 whole entry): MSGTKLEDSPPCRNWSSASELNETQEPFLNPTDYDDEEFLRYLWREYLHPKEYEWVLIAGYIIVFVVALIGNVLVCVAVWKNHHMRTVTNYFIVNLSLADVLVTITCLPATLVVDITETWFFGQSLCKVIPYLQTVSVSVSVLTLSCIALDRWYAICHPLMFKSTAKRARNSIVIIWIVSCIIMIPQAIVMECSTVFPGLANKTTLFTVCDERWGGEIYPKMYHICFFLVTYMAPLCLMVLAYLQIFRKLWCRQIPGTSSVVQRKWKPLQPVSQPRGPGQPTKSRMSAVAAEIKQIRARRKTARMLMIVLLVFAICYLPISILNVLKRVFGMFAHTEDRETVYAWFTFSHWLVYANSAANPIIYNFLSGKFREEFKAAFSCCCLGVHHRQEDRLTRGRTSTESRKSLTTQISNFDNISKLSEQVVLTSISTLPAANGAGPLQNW
The target in a further test is MC3R (Homo sapiens, UniProt P41968). In words: PathHunter β-arrestin assay. To be noted: antagonist mode vs EC80 of control agonist, 10-point curve.
Sequence of MC3R (P41968 whole entry): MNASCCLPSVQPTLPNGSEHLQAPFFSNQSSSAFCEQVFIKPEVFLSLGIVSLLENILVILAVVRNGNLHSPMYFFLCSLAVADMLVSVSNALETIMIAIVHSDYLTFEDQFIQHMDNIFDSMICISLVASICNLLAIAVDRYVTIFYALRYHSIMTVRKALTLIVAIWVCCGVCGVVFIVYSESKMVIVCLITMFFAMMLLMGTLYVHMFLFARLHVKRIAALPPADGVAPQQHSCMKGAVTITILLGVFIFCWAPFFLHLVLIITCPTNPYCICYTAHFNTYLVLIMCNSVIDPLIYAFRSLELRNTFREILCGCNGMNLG
Test [1] concerns GPCR off-targets with >5-fold difference in S/N and CoV (n = 36). In words: Follow-up concentration-response β-arrestin assays, panel of hits. How it is done: Follow up experiments were prioritized based on the difference between S/N and CoV. Targets with a >5-fold difference between S/N and CoV were investigated for their potential contribution to the AMB-FUBINACA toxidrome with 10-point concentration-response curves generated in technical replicate (range 1.5–30 μM) using the EC80 of the relevant agonist, where applicable in antagonist mode. Simultaneous agonist and antagonist curves were run in parallel to ensure reliability of the assay (see Supplementary Table 2), with both RC50 and signal to background aligning with historical averages, and Z' >0.5. RC50 was estimated using a four-parameter fit (CBIS Data Analysis Suite, ChemInnovation, San Diego, CA) on normalized data.

Like-named read-outs stand apart in the source and are kept apart here.

Sequence of CALCRL-RAMP2 (Q16602 23-461): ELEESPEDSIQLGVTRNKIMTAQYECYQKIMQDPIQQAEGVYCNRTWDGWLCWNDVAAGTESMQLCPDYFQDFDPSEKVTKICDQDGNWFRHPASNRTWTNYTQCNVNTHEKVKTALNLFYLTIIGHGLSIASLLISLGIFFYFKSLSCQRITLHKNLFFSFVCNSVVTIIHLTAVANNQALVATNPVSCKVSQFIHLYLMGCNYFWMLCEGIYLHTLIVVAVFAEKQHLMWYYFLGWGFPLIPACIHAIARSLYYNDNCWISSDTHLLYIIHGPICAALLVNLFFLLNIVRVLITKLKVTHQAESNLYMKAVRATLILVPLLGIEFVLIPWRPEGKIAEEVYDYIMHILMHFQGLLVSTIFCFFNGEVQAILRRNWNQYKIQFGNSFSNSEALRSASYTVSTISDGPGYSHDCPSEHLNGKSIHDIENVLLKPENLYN
Sequence of CALCRL-RAMP2 (O60895 43-175 partner): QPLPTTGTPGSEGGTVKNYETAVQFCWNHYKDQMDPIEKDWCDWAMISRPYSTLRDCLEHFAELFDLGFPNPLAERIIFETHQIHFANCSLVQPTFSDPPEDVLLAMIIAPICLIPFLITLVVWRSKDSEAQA
T6 sequence (P48546 22-466): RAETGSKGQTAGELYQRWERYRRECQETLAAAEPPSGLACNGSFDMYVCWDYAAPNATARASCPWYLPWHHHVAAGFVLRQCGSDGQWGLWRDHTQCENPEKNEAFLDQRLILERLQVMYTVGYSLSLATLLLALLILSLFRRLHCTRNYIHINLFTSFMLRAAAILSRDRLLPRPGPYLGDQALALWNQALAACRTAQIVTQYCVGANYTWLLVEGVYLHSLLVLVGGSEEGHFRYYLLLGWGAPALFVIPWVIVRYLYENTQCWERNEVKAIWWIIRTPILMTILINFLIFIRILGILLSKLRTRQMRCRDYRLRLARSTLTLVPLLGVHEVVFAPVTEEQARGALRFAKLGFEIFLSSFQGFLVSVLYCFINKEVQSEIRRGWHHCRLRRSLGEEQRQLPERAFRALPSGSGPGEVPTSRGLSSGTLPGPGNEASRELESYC

One may read the EC50 as the concentration needed to bring the measured effect to its halfway point. A low value points to greater potency. As for `COC(=O)[C@@H](NC(=O)c1nn(Cc2ccc(F)cc2)c2ccccc12)C(C)C` [AMB-FUBINACA], the IC50 on ADRA2C (antagonist mode vs EC80 of control agonist, 10-point curve) was 7.3 µM; on CALCRL-RAMP2, 10.1 µM; at CHRM2 it was 12.9 µM; at FPR1, 7.91 µM; on HCRTR2 it was 12.7 µM; at MC3R, 6.68 µM. Moreover, the IC50 is over 1 µM in test [1] (antagonist mode (Figure 4), read-out: potencies at targets other than CB1) and over 30 µM in [1] (antagonist mode vs EC80 agonist, concentrations up to 30 μM, read-out: IC50 at 12 receptors (Figure 5)). Besides, the “inhibitory activity at lower concentrations” value against ADRA2C (antagonist mode, 1 μM) is recorded as “appreciable inhibitory activity”. Besides, the maximum inhibition on ADRA2C (antagonist mode, concentration-response up to 30 μM) is listed as 63.11%. For the same molecule, the “response of CB1-expressing cells at high concentration” value at CNR1 (CB1) (30 μM, response decreased above 1 μM) was “very little activity remaining at 30 μM”. Also, a half-maximal response on CNR1 (CB1) (data above 1 μM excluded from curve fitting) (EC50) required 0.0426 µM. For the same molecule, the “inhibitory activity in concentration-response” value against GALR1 and on GIPR was “Activity was only observed at the highest concentration (30 μM)” each time. Further, the “inhibition in single-point screen” value against GPR119 is given as “inhibited to the greatest extent of any antagonist mode target”.

These data come from paper PMC9798004 (Frontiers in Psychiatry, 2022).
